Key:
proMMP-3 = assay: activation of proMMP-3 by plasmin in cultured dermal fibroblasts (western blot); assay type: cell-based; conditions: 25 µg/mL; 2,5 µg/mL plasmin; Figure 1B-4
Method: • La Figure 1 représente la modulation de l'activation des proMMP-3 (Figures 1A et 1B) et proMMP-1 (Figure 1C) in vitro comme en culture par des extraits glycolipidiques du gluten de blé. • Figure 1A : 100 nM de proMMP-3 (Figure 1A-1) sont incubés avec 65 nM de plasmine en absence (Figure 1A-2) ou en présence de glycolipides (Figure 1A-3 et 4), à la concentration de 50µg/mL pour M1-Sucres (Figure 1A-3) et 25 µg/mL pour ED 23-11 (Figure 1A-4). • Figure 1B : des fibroblastes dermiques sont ensemencés en plaque 24 puits à raison de […] cellules par puits jusque confluence. Après une mise au repos de 18 heures, les cellules sont incubées en présence (Figure 1B-2, 3 et 4) ou non (Figure 1B-1) de 2,5 µg/mL de plasmine ainsi que des glycolipides M1(-Sucres) (Figure 1B-3) et ED 23-11 (Figure 1B-4) aux mêmes concentrations que précédemment. • Figure 1C : des fibroblastes dermiques sont ensemencés en plaque 24 puits à raison de […] cellules par puits jusque confluence. Après une mise au repos de 18 heures, les cellules sont incubées en présence (Figure 1C-2, 3 et 4) ou non (Figure 1C-1) de 2,5 µg/mL de plasmine ainsi que des glycolipides M1(-Sucres) (Figure 1C-3) et ED 23-11 (Figure 1C-4) aux mêmes concentrations que précédemment. Dans l'ensemble des figures 1A, 1B et 1C, la réaction est arrêtée aux temps indiqués par addition de 0,3 mg/ml d'aprotinine. […]

plasmine humaine = biological target: T1, plasmine humaine (Homo sapiens, UniProt P00747); assay: amidolytic activity of plasmin on synthetic substrate S-2251; assay type: biochemical
T1 construct: connus pour interagir avec la plasmine via son domaine kringle V; testé in vitro sur l'activité amidolytique de la plasmine à l'aide d'un substrat synthétique (S-2251, Chromogénix)
Method: L'effet de ces différentes fractions et produits purs a donc été testé in vitro sur l'activité amidolytique de la plasmine à l'aide d'un substrat synthétique (S-2251, Chromogénix).
Les fractions ou composés purs issus de l'extraction sont solubilisés avant utilisation dans du diméthylsulfoxyde (DMSO) à une concentration de stockage de 20 mg/mL. La conservation est effectuée à -80°C. 12 nM de plasmine humaine sont pré-incubés en absence et en présence de concentrations croissantes (0 à 200 µg/mL) des différentes fractions et produits dans un tampon Tris-HCl 100 mM pH 7,5. La réaction est déclenchée par addition de 0,3 mM de S-2251. L'hydrolyse du S-2251 est suivie par mesure de l'absorbance du para-nitroaniline à 405 nm. La courbe représentant les variations d'absorbance en fonction du temps est tracée et la vitesse initiale de la réaction est déterminée par calcul de la pente de la tangente à l'origine. Le rapport Vi/Vo est calculé, où Vo représente la vitesse initiale en absence d'effecteur et Vi cette vitesse en présence d'un effecteur, et la courbe Vi/Vo en fonction de la concentration en en glycolipides est tracée.

TIMP-1 = TIMP-1 secretion by dermal fibroblasts (reverse zymography); assay type: cell-based
Description: Les effets de ces composés et fractions ont été étudiés sur la sécrétion de TIMP-1 par des fibroblastes dermiques en culture. L'analyse de la quantité de TIMP-1 produite est effectuée par une technique de zymographie inverse (Biotechniques. 2005 Jan;38(1):73-83. Zymographic techniques for the analysis of matrix metalloproteinases and their inhibitors. Snoek-van Beurden PA, Von den Hoff JW). Les résultats présentés sont exprimés en pourcentage par rapport au témoin sans effecteur.

T1 sequence (P00747 97-580 limits assumed): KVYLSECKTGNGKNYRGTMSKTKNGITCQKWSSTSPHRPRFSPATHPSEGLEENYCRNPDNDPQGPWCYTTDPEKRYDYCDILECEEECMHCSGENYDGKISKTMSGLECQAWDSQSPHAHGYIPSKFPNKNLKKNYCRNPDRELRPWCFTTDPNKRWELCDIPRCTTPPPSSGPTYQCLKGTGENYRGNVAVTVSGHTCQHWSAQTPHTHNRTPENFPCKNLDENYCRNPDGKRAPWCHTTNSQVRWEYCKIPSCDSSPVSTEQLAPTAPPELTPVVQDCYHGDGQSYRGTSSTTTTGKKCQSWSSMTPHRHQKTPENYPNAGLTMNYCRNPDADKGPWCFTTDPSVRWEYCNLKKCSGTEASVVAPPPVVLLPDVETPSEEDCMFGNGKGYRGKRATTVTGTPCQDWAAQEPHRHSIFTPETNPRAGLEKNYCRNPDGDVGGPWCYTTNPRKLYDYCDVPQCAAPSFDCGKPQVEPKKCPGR
T1 sequence (P00747 581-810 limits assumed): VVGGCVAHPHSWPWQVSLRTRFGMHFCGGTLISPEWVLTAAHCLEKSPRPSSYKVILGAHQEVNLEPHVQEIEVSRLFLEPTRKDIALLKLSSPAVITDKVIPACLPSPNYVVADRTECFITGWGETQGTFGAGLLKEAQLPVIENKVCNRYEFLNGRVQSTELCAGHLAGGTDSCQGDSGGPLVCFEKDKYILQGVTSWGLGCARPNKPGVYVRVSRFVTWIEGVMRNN

- Plasmine (Vi/Vo) (plasmine humaine; 25 µg/mL, 12 nM plasmin, 0,3 mM S-2251): 2,11 ± 0,16
- Action sur l'activité de la plasmme (Vi/V0) à isoconcentration (plasmine humaine; at isoconcentration): 8,44
- Augmentation d'activité (plasmine humaine; plasmin amidolytic activity, increase from one fractionation step to the next): 2,36
SMILES: CCCCC/C=C\C/C=C\CCCCCCCCOC[C@H](CO[C@@H]1O[C@H](COC(=O)CCCCCCCCCCCCCCC)[C@H](O)[C@H](O)[C@H]1O)OCCCCCCCC/C=C\C/C=C\CCCCC [ED23-11, 1,2-di-O-linoléyl-3-O-[6'-O-palmitoyl-β-D-galactopyranosyl]-sn-glycérol]
- activation de la proMMP-3 (proMMP-3): inhibition significative
- sécrétion de TIMP-1, pourcentage par rapport au témoin sans effecteur (TIMP-1; 5 ng/mL): 102%
- sécrétion de TIMP-1, pourcentage par rapport au témoin sans effecteur (TIMP-1; 25 ng/mL): 104%
- sécrétion de TIMP-1, pourcentage par rapport au témoin sans effecteur (TIMP-1; 50 ng/mL): 98%
- sécrétion de TIMP-1, pourcentage par rapport au témoin sans effecteur (TIMP-1; 100 ng/mL): 101%
- sécrétion de TIMP-1, pourcentage par rapport au témoin sans effecteur (TIMP-1; 200 ng/mL): 106%
- surexpression du TIMP-1 (TIMP-1; over the tested concentration range, result in words): pas
